{
  "source": "paper PMC10575921",
  "about": "(Nature Communications, 2023)",
  "key": {"SARS-CoV-2 Delta strain": {"test_system": "SARS-CoV-2 Delta strain", "assay": "microbe, parasite or virus in culture", "assay_type": "cell-based"}, "[1]": {"test_system": "Chinese hamster lung (CHL) cells"}, "[2]": {"test_system": "human peripheral blood mononuclear cells (PBMCs)"}, "[3]": {"test_system": "human primary hepatocytes", "settings": "human"}, "[4]": {"test_system": "SARS-CoV-2 Omicron strain"}, "[5]": {"settings": "both, cynomolgus monkey, in vivo"}, "[6]": {"settings": "male, C57BL/6J, mouse, in vivo"}, "[7]": {"settings": "male, C57BL/6J, in vivo"}, "[8]": {"settings": "both, SD, rat, in vivo"}, "[9]": {"settings": "both, cynomolgus monkey, in vivo", "remark": "listed apart in the source"}, "[10]": {"test_system": "human peripheral blood mononuclear cells (PBMCs)", "assay": "cells", "settings": "PBMC"}, "[11]": {"test_system": "human primary hepatocytes", "assay": "cells", "settings": "Hepatocyte"}, "in vivo [12]": {"assay": "in vivo", "settings": "both, Sprague-Dawley, rat"}, "in vivo [13]": {"assay": "in vivo", "settings": "both, cynomolgus monkey"}, "in vivo [14]": {"assay": "in vivo", "settings": "male, C57BL/6J, mouse, po"}, "in vivo [15]": {"assay": "in vivo", "settings": "both, SD, rat"}, "in vivo [16]": {"assay": "in vivo", "settings": "both, cynomolgus monkey", "remark": "listed apart in the source"}, "CYP3A4/5": {"test_system": "CYP3A4/5", "assay": "in vitro", "settings": "human, microsomes"}, "in vitro [17]": {"assay": "in vitro", "settings": "rat, plasma"}, "in vitro [18]": {"assay": "in vitro", "settings": "monkey, plasma"}, "in vitro [19]": {"assay": "in vitro", "settings": "mouse, plasma"}, "CYP enzymes (all tested)": {"test_system": "CYP enzymes (all tested)", "assay": "in vitro", "settings": "human"}, "SARS-CoV-2 WIV04 strain": {"test_system": "SARS-CoV-2 WIV04 strain", "assay": "microbe, parasite or virus in culture", "settings": "Severe acute respiratory syndrome coronavirus 2, Vero C1008, read-out: EC50^CP"}, "[20]": {"test_system": "SARS-CoV-2 Omicron strain", "assay": "microbe, parasite or virus in culture"}},
  "note": "Several values for one entry are separate records, joined by “and”; a condition that tells them apart may be missing. Identical values can stand only once. Like-named read-outs stand apart in the source and are kept apart here.",
  "data": [
    {"smiles": "CC(C)(C)[C@H](NC(=O)C(F)(F)F)C(=O)N1CC2(C[C@H]1C(=O)N[C@H](C#N)C[C@@H]1CCNC1=O)SCCS2", "note": "[compound 9, simnotrelvir]", "values": [
      {"measurement": "EC90^total", "setting": "SARS-CoV-2 Delta strain", "value": 0.906, "unit": "µg/mL"},
      {"measurement": "EC90", "setting": "SARS-CoV-2 Delta strain; Severe acute respiratory syndrome coronavirus 2, Vero C1008, read-out: EC90^total", "value": 0.523, "unit": "µg/mL"},
      {"measurement": "EC50", "setting": "SARS-CoV-2 Delta strain; read-out: EC50^CP", "value": 34, "unit": "nM"},
      {"measurement": "EC90", "setting": "SARS-CoV-2 Delta strain; read-out: EC90 (nM), single independent experiment", "value": "290 nM and 382 nM"},
      {"measurement": "inhibition of 413 human kinases", "setting": "413 human kinases", "value": "no significant inhibitory activities"},
      {"measurement": "chromosome aberration test (CA) result", "setting": "[1]", "value": "negative"},
      {"measurement": "IC50 or CC50: PBMC", "setting": "[2]", "value": "> 150000", "unit": "nM"},
      {"measurement": "toxicity to human PBMCs", "setting": "[2]", "value": "no toxicity was observed"},
      {"measurement": "IC50 or CC50: PHHs", "setting": "[3]", "value": "> 150000", "unit": "nM"},
      {"measurement": "toxicity to human hepatocytes", "setting": "[3]", "value": "no toxicity was observed"},
      {"measurement": "EC50", "setting": "[4]", "value": 44.9, "unit": "nM"},
      {"measurement": "increase of AUC0-∞ by ritonavir", "setting": "[5]", "value": 9.6, "unit": "fold"},
      {"measurement": "increase of Cmax by ritonavir", "setting": "[5]", "value": 3.9, "unit": "fold"},
      {"measurement": "time plasma concentration maintained above EC90^total", "setting": "[6]", "value": 24, "unit": "h"},
      {"measurement": "exposure in the mouse brains", "setting": "[7]", "value": "moderate simnotrelvir exposure"},
      {"measurement": "time brain concentration covers EC50^total", "setting": "[7]; mouse", "value": "> 8", "unit": "h"},
      {"measurement": "time brain concentration covers EC90^total", "setting": "[7]; mouse", "value": "more than 2 h"},
      {"measurement": "tolerability in two-week toxicity study", "setting": "[8]", "value": "well tolerated"},
      {"measurement": "tolerability in two-week toxicity study", "setting": "[9]", "value": "well tolerated"},
      {"measurement": "calculated metabolic contribution of CYP3A", "setting": "CYP3A", "value": 87, "unit": "%"},
      {"measurement": "IC50", "setting": "[10]", "value": "> 150000", "unit": "nM"},
      {"measurement": "IC50", "setting": "[11]", "value": "> 150000", "unit": "nM"},
      {"measurement": "bioavailability", "setting": "in vivo [12]; 15 mg/kg", "value": 35.3, "unit": "%"},
      {"measurement": "half-life", "setting": "in vivo [12]; 15 mg/kg", "value": 0.45, "unit": "h"},
      {"measurement": "Vd", "setting": "in vivo [12]; iv, 15 mg/kg", "value": 1.36, "unit": "L/kg"},
      {"measurement": "clearance", "setting": "in vivo [12]; iv, 15 mg/kg", "value": 59.3, "unit": "mL/min/kg"},
      {"measurement": "AUC(0-inf)", "setting": "in vivo [12]; po", "value": 9000, "unit": "ng·h/mL"},
      {"measurement": "AUC(0-t)", "setting": "in vivo [12]; po", "value": 8920, "unit": "ng·h/mL"},
      {"measurement": "Cmax", "setting": "in vivo [12]; po", "value": 2760, "unit": "ng/mL"},
      {"measurement": "half-life", "setting": "in vivo [12]; po", "value": 1.99, "unit": "h"},
      {"measurement": "AUC(0-inf)", "setting": "in vivo [12]; po, 15 mg/kg", "value": 1730, "unit": "ng·h/mL"},
      {"measurement": "AUC(0-t)", "setting": "in vivo [12]; po, 15 mg/kg", "value": 1700, "unit": "ng·h/mL"},
      {"measurement": "Cmax", "setting": "in vivo [12]; po, 15 mg/kg", "value": 1580, "unit": "ng/mL"},
      {"measurement": "half-life", "setting": "in vivo [12]; po, 15 mg/kg", "value": 1.29, "unit": "h"},
      {"measurement": "bioavailability", "setting": "in vivo [13]; 5 mg/kg", "value": 41.9, "unit": "%"},
      {"measurement": "half-life", "setting": "in vivo [13]; 5 mg/kg", "value": 1.7, "unit": "h"},
      {"measurement": "Vd", "setting": "in vivo [13]; iv, 5 mg/kg", "value": 1.5, "unit": "L/kg"},
      {"measurement": "clearance", "setting": "in vivo [13]; iv, 5 mg/kg", "value": 20.7, "unit": "mL/min/kg"},
      {"measurement": "AUC(0-inf)", "setting": "in vivo [13]; po", "value": 17200, "unit": "ng·h/mL"},
      {"measurement": "AUC(0-t)", "setting": "in vivo [13]; po", "value": 17000, "unit": "ng·h/mL"},
      {"measurement": "Cmax", "setting": "in vivo [13]; po", "value": 2440, "unit": "ng/mL"},
      {"measurement": "half-life", "setting": "in vivo [13]; po", "value": 2.38, "unit": "h"},
      {"measurement": "AUC(0-inf)", "setting": "in vivo [13]; po, 5 mg/kg", "value": 1790, "unit": "ng·h/mL"},
      {"measurement": "AUC(0-t)", "setting": "in vivo [13]; po, 5 mg/kg", "value": 1660, "unit": "ng·h/mL"},
      {"measurement": "Cmax", "setting": "in vivo [13]; po, 5 mg/kg", "value": 625, "unit": "ng/mL"},
      {"measurement": "half-life", "setting": "in vivo [13]; po, 5 mg/kg", "value": 5.63, "unit": "h"},
      {"measurement": "Cmax", "setting": "in vivo [14]", "value": 49300, "unit": "ng/mL"},
      {"measurement": "Cmax", "setting": "in vivo [14]; 50 mg/kg", "value": 18500, "unit": "ng/mL"},
      {"measurement": "Cmax", "setting": "in vivo [15]; 1000 mg/kg/day", "value": 17000, "unit": "ng/mL"},
      {"measurement": "NOAEL", "setting": "in vivo [15]; po", "value": 1000, "unit": "mg/kg/day"},
      {"measurement": "Cmax", "setting": "in vivo [16]; 600 mg/kg/day", "value": 26400, "unit": "ng/mL"},
      {"measurement": "NOAEL", "setting": "in vivo [16]; po", "value": 600, "unit": "mg/kg/day"},
      {"measurement": "IC50", "setting": "CYP3A4/5", "value": 30000, "unit": "nM"},
      {"measurement": "activity at 0.1 µM", "setting": "CYP3A4/5; […]", "value": 104, "unit": "%"},
      {"measurement": "activity at 1 µM", "setting": "CYP3A4/5; […]", "value": 101, "unit": "%"},
      {"measurement": "activity at 3.33 µM", "setting": "CYP3A4/5; […]", "value": 95.4, "unit": "%"},
      {"measurement": "activity at 10 µM", "setting": "CYP3A4/5; […], 10 μM", "value": 73.9, "unit": "%"},
      {"measurement": "activity at 33.3 µM", "setting": "CYP3A4/5; […], 33.3 μM", "value": 46.6, "unit": "%"},
      {"measurement": "activity at 100 µM", "setting": "CYP3A4/5; […], 100 μM", "value": 21.8, "unit": "%"},
      {"measurement": "fraction unbound", "setting": "in vitro [17]", "value": 0.334},
      {"measurement": "fraction unbound", "setting": "in vitro [18]", "value": 0.193},
      {"measurement": "fraction unbound", "setting": "in vitro [19]", "value": 0.217},
      {"measurement": "IC50", "setting": "CYP enzymes (all tested)", "value": "≥ 30000", "unit": "nM"},
      {"measurement": "EC50", "setting": "SARS-CoV-2 WIV04 strain", "value": 26, "unit": "nM"},
      {"measurement": "EC50", "setting": "[20]; Severe acute respiratory syndrome coronavirus 2, Vero C1008", "value": 38.7, "unit": "nM"},
      {"measurement": "EC50", "setting": "[20]; Severe acute respiratory syndrome coronavirus 2, Vero C1008, read-out: EC50^CP", "value": 43, "unit": "nM"}
    ]}
  ]
}
